In patent US20210000912A1, “Compositions And Methods For Prophylaxis Or Treatment Of Pain” (Interk Peptide Therapeutics Limited, priority 2017, published 2021):
pIC50: −log10 of the molar value.

What was measured:
c-Src (h) = biological target: T1, c-Src (h) (Homo sapiens, UniProt P12931); assay: c-Src kinase activity assay, cell free; assay type: biochemical
T1 construct: purchased Eurofins Pharma Discovery Services UK Ltd (contract assay service)
Description: The capacity of test peptides to inhibit the activity of the kinases PKG1α, PKG1β, and Src family kinases in a cell free assay was assessed. The test peptides were amidated at their C-terminal end (indicated by “—NH2”) unless otherwise noted. Kinase activity assays were conducted by Eurofins Pharma Discovery Services UK Ltd (Dundee Technology Park, Dundee, United Kingdom) and Reaction Biology Corp. (Malvern, Pa., USA).
All test peptides are prepared to 50× final assay concentration in 100% DMSO. This working stock of the test compound is added to assay wells as the first component in the reaction, followed by the remaining components of the respective assay protocols described below. There is no pre-incubation step between the test peptide and the kinase prior to initiation of the reaction. The kinases are diluted in buffer (20 mM MOPS, 1 mM EDTA, 0.01% Brij-35, 5% Glycerol, 0.1% β-mercaptoethanol, 1 mg/mL BSA) prior to addition to the reaction mix.
Positive control wells contain all components of the reaction, except the test peptide of interest. However, DMSO (at a final concentration of 2%) is included in positive control wells to control for solvent effects. Negative control wells contain all components of the reaction, with a reference inhibitor (staurosporine) replacing the test peptide. This abolishes kinase activity and establishes a base-line (0% kinase activity). Kinase assay protocols (Eurofins Pharma Discovery Services UK Ltd, Dundee Technology Park, Dundee, United Kingdom) are described below. Of the Src family kinases, only the assay protocol for c-Src is shown.
c-Src (h) is incubated with 8 mM MOPS pH 7.0, 0.2 mM EDTA, 250 μM KVEKIGEGTYGVVYK (Cdc2 peptide), 10 mM MgAcetate and [γ-^33P]-ATP (specific activity approx. 500 cpm/pmol, concentration as required). The reaction is initiated by the addition of the MgATP mix. After incubation for 40 minutes at room temperature, the reaction is stopped by the addition of 3% phosphoric acid solution. A 10 μL aliquot of the reaction is then spotted onto a P30 filtermat and washed three times for 5 minutes in 75 mM phosphoric acid and once in methanol prior to drying and scintillation counting.

nerve injured rats = assay: Intrathecal testing in neuropathic pain model, von Frey paw withdrawal threshold; assay type: in vivo, Sprague-Dawley rats; conditions: administered intrathecally, on a molar basis
Description: Experiments were performed on male Sprague-Dawley rats weighing 300-400 g at the start of experiments. Animals were housed 2 or 3 per cage until cannula surgery, after which time they were singly housed for 4 days until the day of experiment. Animals were maintained on standard 12-h light/dark cycle with food and water available ad libitum.
After baseline von Frey measures were taken, animals underwent partial nerve ligation (PNL) surgery, as previously described (Seltzer, Z., Dubner, R., Shir, Y., 1990. A novel behavioural-model of neuropathic pain disorders produced in rats by partial sciatic-nerve injury. Pain 43, 205-218). Briefly, animals were deeply anaesthetised using isoflurane (2.0-2.5% in oxygen), and the sciatic nerve of the left hind-leg was exposed via blunt dissection of the biceps femoris at a site near the trochanter, just distal to the posterior biceps semitendinosus nerve branches of the common sciatic nerve. A 6-0 silk suture was used to tightly ligate the dorsal 30-50% of the nerve. […]
Mechanical paw withdrawal threshold (PWT) was measured using a series of von Frey hairs with bending pressures ranging from 0.41 to 15.1 g. […] The mechanical PWT was calculated using the up-down paradigm (Dixon, W. J., 1980. Efficient analysis of experimental-observations. Annual Review of Pharmacology and Toxicology 20, 441-462). […]

CFA-injected mice = assay: Grip strength testing in CFA study; assay type: in vivo, C57Bl/6 mice
Description: Forepaw grip strength was determined using a grip strength meter (DFIS-2 series digital force gauge, Columbus Instruments, Columbus, Ohio). The animals' forelimbs were placed on a horizontal bar connected to a force gauge. The animal was the gently pulled away from the bar and the peak force required for a release was recorded. Each mouse was tested 3 times, with a 1 min inter-trial interval (Martinez-Huenchullan, S. F., et al., “Utility and reliability of non-invasive muscle function tests in high-fat-fed mice”. Experimental Physiology, 2017. 102(7): p. 773-778). The average peak tension (g), and tension normalised to body weight were compared.

T1 sequence (P12931 whole entry): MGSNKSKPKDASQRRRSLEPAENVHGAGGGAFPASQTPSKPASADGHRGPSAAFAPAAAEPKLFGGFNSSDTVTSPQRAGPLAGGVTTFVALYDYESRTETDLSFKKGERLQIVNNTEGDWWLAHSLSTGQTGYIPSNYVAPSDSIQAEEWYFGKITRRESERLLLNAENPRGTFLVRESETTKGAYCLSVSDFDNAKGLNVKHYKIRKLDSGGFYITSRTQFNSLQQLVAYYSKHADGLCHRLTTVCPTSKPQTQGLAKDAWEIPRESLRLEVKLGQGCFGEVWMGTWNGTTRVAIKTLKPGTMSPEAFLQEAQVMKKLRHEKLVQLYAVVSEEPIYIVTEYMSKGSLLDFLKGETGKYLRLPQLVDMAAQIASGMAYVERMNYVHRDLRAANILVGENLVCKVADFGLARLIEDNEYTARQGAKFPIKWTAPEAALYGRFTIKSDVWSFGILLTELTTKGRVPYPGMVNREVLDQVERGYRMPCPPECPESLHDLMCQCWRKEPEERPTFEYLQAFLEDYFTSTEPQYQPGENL

N=C(N)NCCC[C@H](NC(=O)[C@H](CCCNC(=N)N)NC(=O)[C@H](CCCNC(=N)N)NC(=O)[C@H](CCCNC(=N)N)NC(=O)[C@H](CCCNC(=N)N)NC(=O)[C@H](CCCNC(=N)N)NC(=O)[C@H](CCCNC(=N)N)NC(=O)[C@H](CCCNC(=N)N)NC(=O)[C@H](CCCNC(=N)N)NC(=O)[C@H](CCCNC(=N)N)NC(=O)[C@H](CCCNC(=N)N)NC(=O)[C@H](CCCNC(=N)N)NC(=O)[C@H](CCCNC(=N)N)NC(=O)[C@@H](N)CCCNC(=N)N)C(N)=O [IK01400, RRRRRRRRRRRRRR-NH2]
pIC50 (c-Src (h)): 8.26
alleviating neuropathic pain (ipsilateral von Frey PWT) compared to morphine (nerve injured rats): more effective in alleviating neuropathic pain than morphine on a molar basis
alertness of animals (CFA-injected mice; all time points): alert at all time points
grip strength compared to vehicle control (CFA-injected mice; intra-peritoneal, CFA study): no difference
